In assay [1] the target is T1, SUR1 (Rattus norvegicus, UniProt Q09429). Briefly: [3H]-glibenclamide displacement in SUR1-expressing HEK293t cells under illumination. The format is cell-based. Also on record: gene Abcc8.
Target sequence in this assay (Q09429 whole entry): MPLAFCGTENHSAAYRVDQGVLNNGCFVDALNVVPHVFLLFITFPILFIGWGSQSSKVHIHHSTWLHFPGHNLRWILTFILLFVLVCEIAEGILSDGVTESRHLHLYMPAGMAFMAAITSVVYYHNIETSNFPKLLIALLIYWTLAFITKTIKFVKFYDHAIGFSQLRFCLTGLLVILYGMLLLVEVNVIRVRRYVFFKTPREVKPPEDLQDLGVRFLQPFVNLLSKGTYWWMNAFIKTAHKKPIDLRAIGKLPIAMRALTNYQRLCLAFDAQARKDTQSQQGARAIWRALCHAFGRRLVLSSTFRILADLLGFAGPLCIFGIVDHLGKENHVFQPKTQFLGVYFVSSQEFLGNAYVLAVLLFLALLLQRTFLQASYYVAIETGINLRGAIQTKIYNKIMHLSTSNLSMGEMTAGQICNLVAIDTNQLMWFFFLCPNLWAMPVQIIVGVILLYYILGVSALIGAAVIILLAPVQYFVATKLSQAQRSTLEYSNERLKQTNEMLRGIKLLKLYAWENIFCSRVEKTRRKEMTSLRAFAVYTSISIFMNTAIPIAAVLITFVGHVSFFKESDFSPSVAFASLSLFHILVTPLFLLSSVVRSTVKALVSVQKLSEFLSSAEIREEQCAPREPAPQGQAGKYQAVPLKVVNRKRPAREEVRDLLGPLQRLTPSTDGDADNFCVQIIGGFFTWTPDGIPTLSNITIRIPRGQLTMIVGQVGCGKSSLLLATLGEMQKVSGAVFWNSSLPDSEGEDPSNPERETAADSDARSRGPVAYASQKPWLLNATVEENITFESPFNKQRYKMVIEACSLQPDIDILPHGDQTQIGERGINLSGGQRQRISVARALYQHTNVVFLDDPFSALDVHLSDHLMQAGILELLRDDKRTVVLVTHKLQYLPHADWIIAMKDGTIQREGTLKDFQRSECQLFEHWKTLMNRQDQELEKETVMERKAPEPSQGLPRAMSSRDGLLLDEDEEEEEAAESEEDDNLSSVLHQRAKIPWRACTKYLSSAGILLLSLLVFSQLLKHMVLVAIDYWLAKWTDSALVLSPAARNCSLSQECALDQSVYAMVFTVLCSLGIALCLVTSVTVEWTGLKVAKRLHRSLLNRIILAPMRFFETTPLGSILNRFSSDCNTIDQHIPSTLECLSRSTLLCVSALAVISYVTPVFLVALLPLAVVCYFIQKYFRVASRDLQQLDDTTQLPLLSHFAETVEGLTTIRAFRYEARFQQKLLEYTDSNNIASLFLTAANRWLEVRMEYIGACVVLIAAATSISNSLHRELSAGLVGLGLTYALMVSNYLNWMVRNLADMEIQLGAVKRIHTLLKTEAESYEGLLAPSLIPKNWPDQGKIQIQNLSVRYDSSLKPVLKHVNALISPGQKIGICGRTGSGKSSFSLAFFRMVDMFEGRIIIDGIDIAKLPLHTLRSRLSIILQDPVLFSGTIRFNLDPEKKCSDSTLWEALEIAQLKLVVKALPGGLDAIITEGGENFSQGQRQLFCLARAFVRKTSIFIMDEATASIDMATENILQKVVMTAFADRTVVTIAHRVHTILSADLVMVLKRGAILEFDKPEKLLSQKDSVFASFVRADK
In assay [2] the target is T1, SUR1. Nature of the assay: whole-cell patch clamp of heterologous KATP channels, […] tolbutamide. It counts as cell-based. The arrangement: gene Abcc8; rat SUR1 (Genbank L40624) co-expressed with Kir6.2 in HEK293t cells; with Kir6.2.
Target sequence in this assay (Q09429 whole entry): as above
Target sequence in this assay (Q61743 whole entry partner): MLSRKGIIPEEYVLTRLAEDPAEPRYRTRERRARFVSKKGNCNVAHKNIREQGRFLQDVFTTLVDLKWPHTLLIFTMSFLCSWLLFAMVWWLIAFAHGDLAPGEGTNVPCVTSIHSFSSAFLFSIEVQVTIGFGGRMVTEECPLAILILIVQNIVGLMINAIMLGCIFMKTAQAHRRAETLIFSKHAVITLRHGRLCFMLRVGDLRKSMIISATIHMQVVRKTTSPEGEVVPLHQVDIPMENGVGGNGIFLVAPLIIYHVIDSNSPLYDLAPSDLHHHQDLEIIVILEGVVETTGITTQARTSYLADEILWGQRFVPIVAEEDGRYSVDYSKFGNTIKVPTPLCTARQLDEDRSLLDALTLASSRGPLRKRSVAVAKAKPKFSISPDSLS

The term IC50 denotes the concentration that inhibits the measured activity by half.

For the compound `CCN(CC)c1ccc(/N=N\c2ccc(S(=O)(=O)NC(=O)NC3CCCCC3)cc2)cc1` [JB253, (Z)-N-(cyclohexylcarbamoyl)-4-((4-(diethylamino)phenyl)diazenyl)benzenesulfonamide], the 50% inhibitory concentration (IC50) in assay [1] turned out to be 14.8 µM. In other words, the double-digit micromolar range.
Take `CCCCNC(=O)NS(=O)(=O)c1ccc(C)cc1` [tolbutamide]: the KATP current response result in assay [2] is “Tolbutamide and diazoxide-sensitive inward-rectifying K^+ currents could be recorded in transfected cells”.
